Data reported in patent US9102673B2, “Substituted pyrrolo[3,2-c]pyridines as TrkA kinase inhibitors” (Merck Sharp & Dohme Corp., priority 2011, dated 2015).

Each compound was assayed against T1, TrkA (Homo sapiens, UniProt P04629) (assay: TrkA kinase activity: phosphorylation of a fluorescently labeled peptide substrate (Caliper EZReader II)). Conditions: [E]=0.37 nM, [S]=1 μM, [ATP]=2 mM, room temperature, 3 hours; read-out: Trk A EC50.
T1 construct: purchased Cell Signaling
Assay type: biochemical
Method: TrkA kinase activity was measured as the ability of the enzyme to phosphorylate a fluorescently labeled peptide substrate. Buffer salts, reagents, and fluorescently labeled peptides were purchased from Carna Biosciences and were of the highest quality available (QSS Assist TRICA_MSA Kit). Enzyme was purchased from Cell Signaling, and was used without further purification. 384-well round bottom assay plates were prepared by the addition of […] of a DMSO solution of compound at various concentrations to final inhibitor concentrations ranging from 100 μM to 0.2 μM. Next, assay buffer (10 μl) containing substrate and ATP were added, followed by addition of 10 μl of enzyme in assay buffer. Final assays concentrations were: [E]=0.37 nM, [S]=1 μM, [ATP]=2 mM. The reactions were incubated at room temperature for 3 hours resulting in approximately 15% substrate phosphorylation and were terminated by the addition of 5 μl of stop buffer. Substrates and products were separated on the Caliper EZReader II (Caliper LifeSciences, Inc.) using standard separation protocols. The percent inhibition was calculated for each compound concentration and the IC50 was determined using equation 1.

T1 sequence (P04629 33-796): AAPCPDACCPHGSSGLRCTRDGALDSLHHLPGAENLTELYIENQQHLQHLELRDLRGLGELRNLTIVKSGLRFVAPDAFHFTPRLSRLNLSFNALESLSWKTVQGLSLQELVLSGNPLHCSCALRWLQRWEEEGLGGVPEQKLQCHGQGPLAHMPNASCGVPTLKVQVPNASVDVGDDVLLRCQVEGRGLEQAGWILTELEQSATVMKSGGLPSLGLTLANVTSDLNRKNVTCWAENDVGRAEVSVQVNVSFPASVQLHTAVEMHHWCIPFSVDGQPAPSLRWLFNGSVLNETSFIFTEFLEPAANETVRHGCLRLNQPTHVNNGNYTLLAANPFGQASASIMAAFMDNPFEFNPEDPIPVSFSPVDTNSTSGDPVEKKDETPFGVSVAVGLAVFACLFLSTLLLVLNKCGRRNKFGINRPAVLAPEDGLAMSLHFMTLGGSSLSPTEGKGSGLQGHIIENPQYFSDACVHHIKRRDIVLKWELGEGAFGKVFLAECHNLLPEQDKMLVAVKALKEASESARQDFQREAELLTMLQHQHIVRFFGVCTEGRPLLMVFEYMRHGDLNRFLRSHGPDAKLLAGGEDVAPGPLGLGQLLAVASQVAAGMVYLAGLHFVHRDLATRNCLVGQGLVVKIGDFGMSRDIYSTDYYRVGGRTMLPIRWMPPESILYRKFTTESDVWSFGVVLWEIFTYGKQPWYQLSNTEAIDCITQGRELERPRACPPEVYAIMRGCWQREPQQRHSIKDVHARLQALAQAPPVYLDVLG

Row | SMILES | EC50 [µM]
1 | O=C(O)c1cc2cc(-c3cccnc3)ccc2n1CCOc1ccc(OC(F)(F)F)cc1 [Example 81, 5-pyridin-3-yl-1-{2-[4-(trifluoromethoxy)phenoxy]ethyl}-1H-indole-2-carboxylic acid] | 0.469
2 | O=C(O)c1cc2c(-c3cccc4ncccc34)nccc2n1Cc1noc(-c2ccccc2)n1 [Example 16, 1-[(5-phenyl-1,2,4-oxadiazol-3-yl)methyl]-4-(quinolin-5-yl)-1H-pyrrolo[3,2-c]pyridine-2-carboxylic acid] | 5.36
3 | O=C(O)c1cc2cc(-c3cncnc3)ccc2n1CCOc1ccc(OC(F)(F)F)cc1 [Example 78, 5-pyrimidin-5-yl-1-{2-[4-(trifluoromethoxy)phenoxy]ethyl}-1H-indole-2-carboxylic acid] | 0.0387
4 | CCOc1cccc(-c2nccc3c(CCOc4ccc(OC(F)(F)F)cc4)c(C(=O)O)[nH]c23)c1 [Example 91, 7-(3-ethoxyphenyl)-3-{2-[4-(trifluoromethoxy)phenoxy]ethyl}-1H-pyrrolo[2,3-d]pyridine-2-carboxylic acid] | 0.0349
5 | CCOc1cccc(-c2nccc3c2cc(C(=O)O)n3CCOc2ccc(Oc3nccs3)cc2)c1 [Example 73, 4-(3-ethoxyphenyl)-1-{2-[4-(1,3-thiazol-2-yloxy)phenoxy]ethyl}-1H-pyrrolo[3,2-c]pyridine-2-carboxylic acid] | 0.776
6 | CCOc1cccc(-c2nccc3c2cc(C(=O)O)n3CCOc2ccc(C(F)(F)F)nc2)c1 [Example 38, 4-(3-Ethoxyphenyl)-1-(2-{[6-(trifluoromethyl)Pyridin-3-yl]oxy}ethyl)-1H-pyrrolo[3,2-c]pyridine-2-carboxylic acid] | 3.92
7 | CCOc1cccc(-c2nccn3c(CCOc4ccc(OC(F)(F)F)cc4)c(C(=O)O)nc23)c1 [Example 92, 8-(3-ethoxyphenyl)-3-{2-[4-(trifluoromethoxy)phenoxy]ethyl}imidazo[1,2-a]pyrazine-2-carboxylic acid] | 1.21
8 | O=C(O)c1cc2cc(-c3cn[nH]c3)ccc2n1CCOc1ccc(OC(F)(F)F)cc1 [Example 76, 5-(1H-pyrazol-4-yl)-1-{2-[4-(trifluoromethoxy)phenoxy]ethyl}-1H-indole-2-carboxylic acid] | 0.0285
9 | CCCNc1ncc(-c2nccc3c2cc(C(=O)O)n3CCOc2ccc(OC(F)(F)F)cc2)s1 [Example 57, 4-[2-(propylamino)-1,3-thiazol-5-yl]-1-{2-[4-(trifluoromethoxy)phenoxy]ethyl}-1H-pyrrolo[3,2-c]pyridine-2-carboxylic acid] | 0.162
10 | CCCNc1nccc(-c2nccc3c2cc(C(=O)O)n3CCOc2ccc(OC(F)(F)F)cc2)n1 [Example 58, 4-[2-(propylamino)pyrimidin-4-yl]-1-{2-[4-(trifluoromethoxy)phenoxy]ethyl}-1H-pyrrolo[3,2-c]pyridine-2-carboxylic acid] | 30.7
